Test results from patent publication US20070128217A1 (priority 2003, published 2007).

Tests used:
[1] = tested on: rabbit serum obtained by immunizing a rabbit with the SARS-CoV strain Frankfurt 1; format: binding; set-up: Binding of a rabbit serum to linear peptides / Binding of a rabbit serum to looped peptides / Rabbit serum linear peptides / Rabbit serum looped peptides / Binding of a rabbit serum to linear peptides of protein N of SARS-CoV Urbani (Rabbit serum linear peptides) / Binding of a rabbit serum to looped/cyclic peptides of protein N of SARS-CoV Urbani (Rabbit serum looped peptides): unit not given here
[2] = tested on: antibodies in sera from SARS patients (sera 1a, 1b, 2, 6, 37, 62, London, SARS-yellow, SARS-green); format: binding, human; set-up: Binding of serum 6 to linear peptides of protein X1 of SARS-CoV Urbani / Binding of serum 37 to linear peptides of protein X1 of SARS-CoV Urbani / Binding of serum 6 to looped/cyclic peptide (PEPSCAN-ELISA) / Binding of serum 37 to looped/cyclic peptide (PEPSCAN-ELISA) / Binding of serum 37 to looped/cyclic peptides of protein X1 of SARS-CoV Urbani / Binding of serum 6 to linear peptides of protein X2 / Binding of serum 37 to linear peptides of protein X2 / Binding of serum 37 to looped/cyclic peptides of protein X2 of SARS-CoV Urbani / Binding of serum 6 to linear peptides of protein M of SARS-CoV Urbani / Binding of serum 37 to linear peptides of protein M of SARS-CoV Urbani / Binding of serum 6 to looped/cyclic peptides of protein M of SARS-CoV Urbani / Binding of serum 37 to looped/cyclic peptides of protein M of SARS-CoV Urbani / Binding of serum 6 to linear peptides of protein X3 of SARS-CoV Urbani / Binding of serum 37 to linear peptides of protein X3 of SARS-CoV Urbani / Binding of serum 37 to looped/cyclic peptides of protein X3 of SARS-CoV Urbani / Binding of serum 6 to linear peptides of protein X4 of SARS-CoV Urbani / Binding of serum 37 to linear peptides of protein X4 of SARS-CoV Urbani / Binding of serum 37 to looped/cyclic peptides of protein X4 of SARS-CoV Urbani / Binding of serum 6 to linear peptides of protein X5 of SARS-CoV Urbani / Binding of serum 37 to linear peptides of protein X5 of SARS-CoV Urbani / Binding of serum 37 to looped/cyclic peptides of protein X5 of SARS-CoV Urbani / Binding of serum 6 to linear peptides of protein N of SARS-CoV Urbani / Binding of serum 37 to linear peptides of protein N of SARS-CoV Urbani / Binding of serum 6 to linear peptide (PEPSCAN-ELISA) / Binding of serum 1a to looped/cyclic peptides of protein N of SARS-CoV Urbani / Binding of serum 1b to looped/cyclic peptides of protein N of SARS-CoV Urbani / Binding of serum 2 to looped/cyclic peptides of protein N of SARS-CoV Urbani / Binding of serum 6 to looped/cyclic peptides of protein N of SARS-CoV Urbani / Binding of serum 37 to looped/cyclic peptides of protein N of SARS-CoV Urbani / Binding of serum 62 to looped/cyclic peptides of protein N of SARS-CoV Urbani / Binding of serum London to looped/cyclic peptides of protein N of SARS-CoV Urbani / Binding of serum SARS-green to looped/cyclic peptides of protein N of SARS-CoV Urbani: unit not given here
[3] = tested on: control sera (pooled serum of ten healthy LUMC hospital workers; commercial negative donor pooled serum from the Dutch bloodbank); format: binding, human; set-up: Binding of Control serum LUMC to linear peptides / Binding of Control serum Blood-bank to linear peptides / Binding of Control serum LUMC to looped peptides / Binding of Control Serum Blood-Bank to Looped peptides / Binding of Control serum LUMC to linear peptides of the protein M of SARS-CoV Urbani / Binding of Control serum Blood-bank to linear peptides of the protein M of SARS-CoV Urbani / Binding of Control serum LUMC to looped peptides of the protein M of SARS-CoV Urbani / Binding of Control Serum Blood-Bank to Looped peptides of the protein M of SARS-CoV Urbani: unit not given here

Sequence | Binding of a rabbit serum to linear peptides [1] | Binding of a rabbit serum to looped peptides [1] | Binding of serum 1a to linear peptides of protein X2 [2] | Binding of serum 1a to looped/cyclic peptides of protein X2 of SARS-CoV Urbani [2] | Binding of serum 1b to linear peptides of protein X2 [2] | Binding of serum 1b to looped/cyclic peptides of protein X2 of SARS-CoV Urbani [2] | Binding of serum 2 to linear peptides of protein X2 [2] | Binding of serum 2 to looped/cyclic peptides of protein X2 of SARS-CoV Urbani [2] | Binding of serum 6 to linear peptides of protein X2 [2] | Binding of serum 6 to looped/cyclic peptides of protein X2 of SARS-CoV Urbani [2] | Binding of serum 37 to linear peptides of protein X2 [2] | Binding of serum 37 to looped/cyclic peptides of protein X2 of SARS-CoV Urbani [2] | Binding of serum 62 to linear peptides of protein X2 [2] | Binding of serum 62 to looped/cyclic peptides of protein X2 of SARS-CoV Urbani [2] | Binding of serum London to linear peptides of protein X2 [2] | Binding of serum London to looped/cyclic peptides of protein X2 of SARS-CoV Urbani [2] | Binding of Control Serum Blood-Bank to Looped peptides [3] | Binding of Control serum Blood-bank to linear peptides [3] | Binding of Control serum LUMC to linear peptides [3] | Binding of Control serum LUMC to looped peptides [3] | further results
ITMTTVYHITVSQIQ | 0.3 | 0.3 | 0.7 | 0.4 | 0.2 | 0.5 | 0.3 | 0.2 | 0.5 | 0.2 | 0.7 | 0.4 | 0.4 | 0.5 | 0.5 | 0.2 | 0.5 | 0.4 | 0.4 | 0.5 | Binding of serum SARS-green to linear peptides of protein X2 [2]: 0.2; Binding of serum SARS-green to looped/cyclic peptides of protein X2 of SARS-CoV Urbani [2]: 0.3; Binding of serum SARS-yellow to linear peptides of protein X2 [2]: 0.0; Binding of serum SARS-yellow to looped/cyclic peptides of protein X2 of SARS-CoV Urbani [2]: 0.3
TALQELLIQQWIQFM | 0.4 | 0.4 | 0.8 | 0.7 | 0.6 | 0.5 | 0.3 | 0.4 | 0.2 | 0.3 | 0.5 | 0.5 | 0.5 | 0.7 | 0.4 | 0.2 | 0.7 | 0.7 | 0.4 | 0.7 | Binding of serum SARS-green to linear peptides of protein X2 [2]: 0.5; Binding of serum SARS-green to looped/cyclic peptides of protein X2 of SARS-CoV Urbani [2]: 0.5; Binding of serum SARS-yellow to linear peptides of protein X2 [2]: 0.4; Binding of serum SARS-yellow to looped/cyclic peptides of protein X2 of SARS-CoV Urbani [2]: 0.5
KLFIRQEEVQQELYS |  |  |  |  |  |  |  |  |  |  |  |  |  |  |  |  | 0.8 | 0.5 | 0.5 | 0.8 | Rabbit serum linear peptides [1]: 0.5; Rabbit serum looped peptides [1]: 0.5; Binding of serum 1a to linear peptides of protein X4 of SARS-CoV Urbani [2]: 0.7; Binding of serum 1a to looped/cyclic peptides of protein X4 of SARS-CoV Urbani [2]: 0.7; Binding of serum 1b to linear peptides of protein X4 of SARS-CoV Urbani [2]: 0.5; Binding of serum 1b to looped/cyclic peptides of protein X4 of SARS-CoV Urbani [2]: 0.6; Binding of serum 2 to linear peptides of protein X4 of SARS-CoV Urbani [2]: 0.4; Binding of serum 2 to looped/cyclic peptides of protein X4 of SARS-CoV Urbani [2]: 0.6; Binding of serum 6 to linear peptides of protein X4 of SARS-CoV Urbani [2]: 0.5; Binding of serum 6 to looped/cyclic peptides of protein X4 of SARS-CoV Urbani [2]: 0.4; Binding of serum 37 to linear peptides of protein X4 of SARS-CoV Urbani [2]: 0.7; Binding of serum 37 to looped/cyclic peptides of protein X4 of SARS-CoV Urbani [2]: 0.7; Binding of serum 62 to linear peptides of protein X4 of SARS-CoV Urbani [2]: 0.8; Binding of serum 62 to looped/cyclic peptides of protein X4 of SARS-CoV Urbani [2]: 0.6; Binding of serum London to linear peptides of protein X4 of SARS-CoV Urbani [2]: 0.7; Binding of serum London to looped/cyclic peptides of protein X4 of SARS-CoV Urbani [2]: 0.3; Binding of serum SARS-green to linear peptides of protein X4 of SARS-CoV Urbani [2]: 0.6; Binding of serum SARS-green to looped/cyclic peptides of protein X4 of SARS-CoV Urbani [2]: 0.8; Binding of serum SARS-yellow to linear peptides of protein X4 of SARS-CoV Urbani [2]: 0.4; Binding of serum SARS-yellow to looped/cyclic peptides of protein X4 of SARS-CoV Urbani [2]: 0.6
